Like-named read-outs stand apart in the source and are kept apart here.
Legend:
PKMYT1 = target: T1, PKMYT1 (Homo sapiens, UniProt Q99640); assay: ADP-Glo PKMYT1 ATP-depletion assay; settings: 50 nM PKMYT1, 13.3 nM CDK1, read-out: Biochemical IC50
T1 construct: PKMYT1 (93 kD, full length, N-terminal GST tag from Signal Chem); GST (N); purchased Signal Chem
T1 sequence (Q99640 1-499): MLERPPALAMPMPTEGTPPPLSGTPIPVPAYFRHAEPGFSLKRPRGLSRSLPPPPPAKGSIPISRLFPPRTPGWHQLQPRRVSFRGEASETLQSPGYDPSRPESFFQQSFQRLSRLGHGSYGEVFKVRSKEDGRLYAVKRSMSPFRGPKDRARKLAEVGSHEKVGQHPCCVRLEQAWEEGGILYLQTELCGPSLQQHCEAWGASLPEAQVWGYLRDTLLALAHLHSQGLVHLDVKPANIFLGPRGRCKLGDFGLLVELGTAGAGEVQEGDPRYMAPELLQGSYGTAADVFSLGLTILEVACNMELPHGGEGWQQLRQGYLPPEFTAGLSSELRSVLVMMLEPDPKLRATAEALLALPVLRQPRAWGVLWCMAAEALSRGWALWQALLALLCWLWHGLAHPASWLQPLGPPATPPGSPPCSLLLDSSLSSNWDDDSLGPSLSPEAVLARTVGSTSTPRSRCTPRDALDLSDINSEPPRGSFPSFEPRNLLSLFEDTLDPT
Protocol: (§1) Biochemical IC50 values were determined via ADP-Glo™ assay. Cellular IC50 values were determined via AlphaLISA assay.
ADP-Glo™ PKMYT1 ATP-depletion assay. The activity of PKMYT1 is measured using a luciferase-luciferin based ATP detection reaction to quantify ATP depletion resulting from kinase-catalyzed phosphoryl transfer to CDK1 or autophosphorylation of PKMYT1. The ADP generated as a byproduct of the reaction is converted to ATP and used to drive a luciferase reaction. Test compounds were dissolved in DMSO and dispensed into Corning 3824 384-well plates prior to the experiment such that the final DMSO concentration was <1%. To the compounds was added 3 μL of PKMYT1 (93 kD, full length, N-terminal GST tag from Signal Chem). The reaction was started by the addition of 2 μL of CDK1 (58 kDa, full length, N-terminal GST tag from Signal Chem) and ATP in assay buffer (50 mM Hepes, 40 mM NaCl, 10 mM MgCl2, 1 mM DTT, 0.1 mg/mL BSA, 2.5 mM MnCl2). Final assay concentrations were 50 nM PKMYT1, 13.3 nM CDK1, and 88 µM ATP. Plates were centrifuged for 1 minute at 1000 RPM and incubated at RT for 120 minutes. After the incubation period, ADP-Glo™ reagent was added and the plates were incubated for another 40 minutes before finally adding the kinase detection reagent. 30 minutes after the addition, plates were placed on a PHERAstar® plate reader and read using the Luminescence Protocol, integration time at 0.5 seconds.

[1] = test system: phosphorylation of CDK1 at Thr14 in HCC1806 cells; assay: Cell lysate AlphaLISA assay measuring inhibition of phosphorylation of CDK1 Thr14; format: cell-based; settings: read-out: Cellular IC50
Protocol: as §1
Cell lysate AlphaLISA® assay measuring inhibition of phosphorylation of CDK1 Thr14. Inhibition of phosphorylation of CDK1 at Thr14 was determined using AlphaLISA® SureFire® Ultra™ Kit from Perkin Elmer (ALSU-PCDK1-A10K). HCC1806 cells were seeded at 2K cells per well (50 μl/well) in 384-well plates (Corning 3570) and stored overnight at 37° C. and 5% CO2. The following day, the compounds dissolved in DMSO were introduced to the cells and incubated for 4 hours at 37° C. and 5% CO2. The cells were then washed with PBS using Blue®Washer and 10 μl of lysis buffer containing protease inhibitor was added. The plate was placed on an orbital shaker (at 4° C.) for 30 minutes and stored overnight at −80° C. for complete lysing. The next day, the plates were thawed at room temperature for at least 30 min. Reagents were prepared in a dimmed light setting (<100 lumens). The assay was run by first adding 5 μl of the acceptor mix (reaction buffer 1: reaction buffer 2: activation buffer: acceptor beads 47:47:4:2), covering the plate with foil, shaking for 2 minutes and incubating at RT for 60 minutes. The donor mix (dilution buffer: donor beads 47:3) was then added at 5 μl per well, placed on the shaker for 2 minutes and incubated at RT for 60 minutes before reading the plates on a PHERAstar® plate reader. The results were normalized to DMSO (0% Inhibition) and 3 μM of reference compound.

Row | Structure (SMILES) | IC50 (PKMYT1) [nM] | IC50 ([1]; 4 hours) [nM] | IC50 ([1]; Homo sapiens, HCC1806, 4 h) [nM]
1 | Cc1c(O)cccc1-c1c(N)c(C(N)=O)cc2nc(C(F)(F)F)c(O)nc12 (atropisomer, axis not shown) [Compound 135] | 50 to 500 | 1000 to 5000 | 
2 | Cc1c(O)cccc1-c1c(N)c(C(N)=O)cc2nc(C(F)(F)F)c(O)nc12 (atropisomer, axis not shown) [Compound 136] | ≥ 5000 | ≥ 5000 | 
3 | Cc1ccc(O)c(C)c1-c1c(N)c(C(N)=O)cc2nc(C)c(C)nc12 (atropisomer, axis not shown) [Compound 140] | ≥ 5000 |  | 
4 | Cc1ccc(O)c(C)c1-c1c(N)c(C(N)=O)cc2nc(C)c(C)nc12 (atropisomer, axis not shown) [Compound 141] | < 50 |  | 
5 | Cc1c(O)cccc1-c1c(N)c(C(N)=O)nc2cc(C(F)(F)F)ccc12 (atropisomer, axis not shown) [Compound 147] | 1000 to 5000 | 1000 to 5000 | 
6 | Cc1c(O)cccc1-c1c(N)c(C(N)=O)nc2cc(C(F)(F)F)ccc12 (atropisomer, axis not shown) [Compound 148] | ≥ 5000 | ≥ 5000 | 
7 | Cc1ccc2nc(C(N)=O)c(N)c(-c3cccc(O)c3C)c2c1 (atropisomer, axis not shown) [Compound 149] | 50 to 500 |  | 
8 | Cc1ccc2nc(C(N)=O)c(N)c(-c3cccc(O)c3C)c2c1 (atropisomer, axis not shown) [Compound 150] | ≥ 5000 |  | 
9 | NC(=O)c1cc2nccnc2c(-c2cc(O)ccc2Cl)c1N (atropisomer, axis not shown) [Compound 151] | 50 to 500 |  | 
10 | NC(=O)c1cc2nccnc2c(-c2cc(O)ccc2Cl)c1N (atropisomer, axis not shown) [Compound 152] | ≥ 5000 |  | 
11 | NC(=O)c1cc2nccnc2c(-c2cc(O)cnc2Cl)c1N (atropisomer, axis not shown) [Compound 163] | 1000 to 5000 | ≥ 5000 | 
12 | NC(=O)c1cc2nccnc2c(-c2cc(O)cnc2Cl)c1N (atropisomer, axis not shown) [Compound 164] | ≥ 5000 | ≥ 5000 | 
13 | Cc1ccc(O)c(C)c1-c1cc(C(N)=O)cc2nccnc12 (atropisomer, axis not shown) [Compound 165] | ≥ 5000 |  | 
14 | Cc1c(O)cccc1-c1c(N)c(C(N)=O)nc2cc(C(F)(F)F)cnc12 (atropisomer, axis not shown) [Compound 166] | < 50 | 50 to 500 | 
15 | Cc1c(O)cccc1-c1c(N)c(C(N)=O)nc2cc(C(F)(F)F)cnc12 (atropisomer, axis not shown) [Compound 167] | 1000 to 5000 | ≥ 5000 | 
16 | Cc1cnc2cc(C(N)=O)c(N)c(-c3cccc(O)c3C)c2n1 (atropisomer, axis not shown) [Compound 168] | < 50 | 50 to 500 | 
17 | Cc1cnc2cc(C(N)=O)c(N)c(-c3cccc(O)c3C)c2n1 (atropisomer, axis not shown) [Compound 169] | 50 to 500 | 500 to 1000 | 
18 | Cc1c(O)cccc1-c1c(N)c(C(N)=O)cc2nc(C)c(=O)n(C)c12 (atropisomer, axis not shown) [Compound 170] | ≥ 5000 | ≥ 5000 | 
19 | Cc1c(O)cccc1-c1c(N)c(C(N)=O)cc2nc(C)c(=O)n(C)c12 (atropisomer, axis not shown) [Compound 171] | 50 to 500 | 1000 to 5000 | 
20 | COc1ccc2nc(C(N)=O)c(N)c(-c3cccc(O)c3C)c2n1 (atropisomer, axis not shown) [Compound 174] | < 50 | 50 to 500 | 
21 | COc1ccc2nc(C(N)=O)c(N)c(-c3cccc(O)c3C)c2n1 (atropisomer, axis not shown) [Compound 175] | ≥ 5000 | ≥ 5000 | 

Row | Structure (SMILES) | IC50 (PKMYT1) [nM] | IC50 ([1]; 4 hours) [nM] | IC50 ([1]; Homo sapiens, HCC1806, 4 h) [nM]
22 | Cc1c(O)cccc1-c1c(N)c(C(N)=O)cc2cc(Cl)cnc12 (atropisomer, axis not shown) [Compound 179] | < 50 | 50 to 500 | 
23 | Cc1cccc(-c2c(N)c(C(N)=O)cc3cc(Cl)cnc23)c1C (atropisomer, axis not shown) [Compound 180] | 50 to 500 |  | 1000 to 5000
24 | COc1cncc(-c2c(N)c(C(N)=O)nc3cccnc23)c1C (atropisomer, axis not shown) [Compound 185] | ≥ 5000 | ≥ 5000 | 
25 | COc1nc2cc(C(N)=O)c(N)c(-c3cccc(O)c3C)c2nc1C (atropisomer, axis not shown) [Compound 187] | < 50 | 50 to 500 | 
26 | Cc1cnc2cc(C(N)=O)c(N)c(-c3c(C)ccc(O)c3C)c2n1 (atropisomer, axis not shown) [Compound 188] | < 50 | 50 to 500 | 
27 | Cc1cnc2cc(C(N)=O)c(N)c(-c3c(C)ccc(O)c3C)c2n1 (atropisomer, axis not shown) [Compound 192] | ≥ 5000 | ≥ 5000 | 
28 | COc1nc2cc(C(N)=O)c(N)c(-c3cccc(O)c3C)c2nc1C (atropisomer, axis not shown) [Compound 193] | ≥ 5000 | ≥ 5000 | 
29 | Cc1c(O)cccc1-c1c(N)c(C(N)=O)nc2nccnc12 (atropisomer, axis not shown) [Compound 194] | < 50 |  | 
30 | Cc1c(O)cccc1-c1c(N)c(C(N)=O)nc2nccnc12 (atropisomer, axis not shown) [Compound 195] | 500 to 1000 |  | 
31 | Cc1cnc2c(-c3cccc(O)c3C)c(N)c(C(N)=O)cc2n1 (atropisomer, axis not shown) [Compound 201] | ≥ 5000 | ≥ 5000 | 
32 | Cc1cnc2c(-c3cccc(O)c3C)c(N)c(C(N)=O)cc2n1 (atropisomer, axis not shown) [Compound 209] | < 50 | 50 to 500 | 
33 | Cc1cnc2c(-c3c(C)ccc(O)c3C)c(N)c(C(N)=O)cc2c1 (atropisomer, axis not shown) [Compound 213] | < 50 |  | 50 to 500
34 | COc1nc2c(-c3cccc(O)c3C)c(N)c(C(N)=O)cc2nc1C (atropisomer, axis not shown) [Compound 218] | < 50 | 500 to 1000 | 
35 | Cc1cnc2c(-c3c(C)ccc(O)c3C)c(N)c(C(N)=O)cc2n1 (atropisomer, axis not shown) [Compound 222] | < 50 | < 50 | 
36 | Cc1cnc2c(-c3c(C)ccc(O)c3C)c(N)c(C(N)=O)cc2n1 (atropisomer, axis not shown) [Compound 223] | ≥ 5000 | ≥ 5000 | 
37 | COc1nc2c(-c3cccc(O)c3C)c(N)c(C(N)=O)cc2nc1C (atropisomer, axis not shown) [Compound 224] | 1000 to 5000 | ≥ 5000 | 
38 | Cc1ccc(O)c(C)c1-c1c(N)c(C(N)=O)cc2cc(Cl)cnc12 (atropisomer, axis not shown) [Compound 235] | 1000 to 5000 | ≥ 5000 | 
39 | Cc1c(O)cccc1-c1c(N)c(C(N)=O)nc2cccc(C#N)c12 (atropisomer, axis not shown) [Compound 242] | < 50 | < 50 | 
40 | Cc1c(O)cccc1-c1c(N)c(C(N)=O)nc2cccc(C#N)c12 (atropisomer, axis not shown) [Compound 243] | 50 to 500 | 50 to 500 | 
41 | NC(=O)c1nc2cccnc2c(-c2c(F)ccc3[nH]ncc23)c1N (atropisomer, axis not shown) [Compound 244] | 50 to 500 | 500 to 1000 | 
